Usually Kd stands for the free concentration of one partner at which half of the binding sites on the other are occupied at equilibrium, for simple one-to-one binding. What is called IC50 is the concentration needed to halve the response being measured.

The values below come from paper PMC10333884, “Large‐scale phosphomimetic screening identifies phospho‐modulated motif‐based protein interactions” (Molecular Systems Biology, 2023).

“And” between values parts separate entries of the source, which are not always exact repeats. Equal values may be shown once. Non-standard residues stand in square brackets, D forms with d. Residues, ends and D or L forms follow the SMILES beside them. pS = N[C@@H](COP(=O)(O)O)C(=O)O

Common to all, as to assay type: binding
Test [1] deals with T1, Clathrin NTD (Homo sapiens, UniProt Q00610).
T1 construct: GST (cleaved yes); made in house; host or cells: Escherichia coli BL21-Gold(DE3)
T1 sequence (Q00610 1-364): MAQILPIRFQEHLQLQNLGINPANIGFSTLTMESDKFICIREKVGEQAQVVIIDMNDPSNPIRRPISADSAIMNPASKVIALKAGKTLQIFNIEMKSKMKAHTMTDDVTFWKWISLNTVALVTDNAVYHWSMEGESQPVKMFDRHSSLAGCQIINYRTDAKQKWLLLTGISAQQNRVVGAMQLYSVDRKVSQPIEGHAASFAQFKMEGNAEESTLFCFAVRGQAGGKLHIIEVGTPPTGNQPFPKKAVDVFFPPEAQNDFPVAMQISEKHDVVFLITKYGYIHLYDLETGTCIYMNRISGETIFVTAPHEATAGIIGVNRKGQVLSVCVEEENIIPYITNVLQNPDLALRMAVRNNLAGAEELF
As to the kind of experiment: FP displacement assay, clathrin NTD. How it is done: (§1) FP experiments were performed as described previously (Kliche et al, [2021]). Shortly, in order to monitor the binding event, FITC‐labelled peptides were used (excitation 495 nm, emission: 535 nm) and the FP signal was recorded in mP on a SpectraMax iD5 Multi‐Mode Microplate Reader (Molecular Devices) by measuring the emitted light in two angels. The measurements were performed at room temperature and prepared in nonbinding black half area 96‐well microplates (Corning®; 50 μl/well). For measuring direct binding, that is saturation curves, a 1:1 dilution series of protein domain (25 μl/well) was generated in 50 mM sodium phosphate buffer pH 7.4 and the measurement performed with 5 nM FITC‐labelled peptide (25 μl/well). The buffer‐corrected values were subsequently plotted with PRISM and fitted to the quadratic equation (Gianni et al, [2005]).
(§2) The 1:1 dilution series in this experiment was performed with the unlabelled peptide in 50 mM sodium phosphate buffer pH 7.4, so that each well‐contained unlabelled peptide (25 μl) at a certain concentration and pre‐formed complex (25 μl). The KD values of this indirectly monitored binding event were calculated as described previously (Nikolovska‐Coleska et al, [2004]). All measurements were at least in technical triplicates as well as biological duplicates when indicated. An amplitude shift between repeat measurements in the displacement experiments was occasionally observed due to variations in the protein preparations. If that was the case, the “active” protein concentration was back‐calculated according to the quadratic equation from the saturation curves performed in parallel. By comparing the active protein concentrations in the complex between different protein preparations, the amplitude was normalised.

Test [2] has as its target T1, Clathrin NTD. Kind of test: ITC, clathrin NTD. To be noted: ITC (iTC200), 50 mM sodium phosphate pH 7.4, 1 mM DTT; average of the runs, at least technical triplicates.
The target of the next test is T2, AP2 μ2 (Homo sapiens, UniProt Q96CW1).
T2 construct: AP2_Mu__Q96CW1_160_435; GST (cleaved yes); made in house; host or cells: Escherichia coli BL21-Gold(DE3)
T2 sequence (Q96CW1 160-435): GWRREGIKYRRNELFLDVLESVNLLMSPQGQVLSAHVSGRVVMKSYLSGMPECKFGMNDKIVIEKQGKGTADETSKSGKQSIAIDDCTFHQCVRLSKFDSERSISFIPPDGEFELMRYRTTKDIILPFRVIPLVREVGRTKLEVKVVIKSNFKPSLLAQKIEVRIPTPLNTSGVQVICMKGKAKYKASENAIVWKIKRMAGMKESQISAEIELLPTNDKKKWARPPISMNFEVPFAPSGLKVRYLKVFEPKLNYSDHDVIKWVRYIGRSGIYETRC
As to the kind of experiment: FP displacement assay, AP2 μ2. The note with it: probe FITC-ATG9A 5 nM, 50 mM sodium phosphate pH 7.4, room temperature, at least three technical replicates, read-out: KD values ± SEM. How it is done:
as §1, §2

The next test has as its target T3, 14-3-3 theta (Homo sapiens, UniProt P27348).
T3 construct: GST (cleaved yes); made in house; host or cells: Escherichia coli BL21-Gold(DE3)
T3 sequence (P27348 1-245): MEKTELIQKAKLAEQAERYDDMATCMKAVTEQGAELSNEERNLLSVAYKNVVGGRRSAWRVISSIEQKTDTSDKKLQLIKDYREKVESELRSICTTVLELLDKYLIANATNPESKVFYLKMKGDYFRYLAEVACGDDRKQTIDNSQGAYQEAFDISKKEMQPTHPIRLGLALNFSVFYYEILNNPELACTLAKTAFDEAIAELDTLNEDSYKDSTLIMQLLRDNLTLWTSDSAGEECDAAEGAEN
As to the kind of experiment: FP displacement assay, 14-3-3 theta. To be noted: probe FITC-2BTP; technical triplicates. How it is done: as §1, §2

Consider `CC[C@H](C)[C@H](NC(=O)[C@H](CC(C)C)NC(=O)[C@H](CC(N)=O)NC(=O)CNC(=O)CNC(=O)[C@H](Cc1ccc(O)cc1)NC(C)=O)C(=O)N[C@H](C(=O)N[C@@H](Cc1ccccc1)C(=O)N[C@@H](COP(=O)(O)O)C(=O)N1CCC[C@H]1C(=O)N[C@@H](CC(C)C)C(=O)N[C@@H](CCC(N)=O)C(=O)N1CCC[C@H]1C(=O)NCC(=O)N[C@@H](CCC(=O)O)C(=O)N[C@@H](Cc1ccccc1)C(N)=O)[C@@H](C)O` [HURP832–846 pS] (Ac-YGGNLITF[pS]PLQPGEF-NH2), for which the Kd at Clathrin NTD [1] was under 3 µM; at Clathrin NTD [2] it was 5 µM and 3 µM. In addition, at Clathrin NTD [1] (Fig 6A, clathrin NTD, FP displacement, two to three technical replicates per protein preparation, 2 independent preparations, read-out: IC50 values of displacement curves, with SEM), the IC50 was 11 ± 4 µM.
Consider `CC(=O)N[C@@H](Cc1ccccc1)C(=O)N1CCC[C@H]1C(=O)N[C@@H](CO)C(=O)N[C@@H](CO)C(=O)N[C@@H](Cc1ccc(O)cc1)C(=O)N[C@H](C(=O)N[C@@H](CCCCN)C(=O)N[C@@H](CC(C)C)C(=O)N[C@@H](CC(C)C)C(=O)N[C@@H](CCC(=O)O)C(=O)N[C@@H](CCC(=O)O)C(=O)N[C@@H](CC(N)=O)C(=O)N[C@@H](CCC(=O)O)C(=O)N[C@H](C(=O)N[C@@H](CCC(=O)O)C(=O)N[C@@H](C)C(N)=O)[C@@H](C)O)[C@@H](C)O` [BAIAPL1_392–407 wt] (Ac-FPSSYTKLLEENETEA-NH2), for which the Kd on AP2 μ2 worked out at 1.29 ± 0.06 µM.
Consider “H3COC-DMYALTRGSS(E/pS)LADQRK-NH2 [S375 TOM1_366–382, wild-type TOM1 366-382 (F368Y) peptide]”, for which the “binding in FP displacement experiment” value at 14-3-3 theta is given as “no binding”.
On to `CC[C@H](C)[C@H](NC(=O)[C@@H](NC(=O)[C@@H]1CCCN1C(=O)[C@H](CO)NC(=O)[C@H](CO)NC(=O)[C@H](C)NC(=O)[C@@H]1CCCN1C(=O)[C@H](CCSC)NC(=O)[C@@H]1CCCN1C(=O)[C@H](CCC(N)=O)NC(=O)[C@H](Cc1ccc(O)cc1)NC(=O)[C@@H]1CCCN1C(=O)[C@@H](NC(=O)[C@@H](NC(=O)[C@H](CCSC)NC(C)=O)[C@@H](C)O)[C@@H](C)CC)C(C)C)C(=O)N[C@@H](CS)C(N)=O` [PCBP1_179–194 wt] (Ac-MTIPYQPMPASSPVIC-NH2), for which the dissociation constant (Kd) on AP2 μ2 came out at 3.7 ± 0.1 µM.
Regarding `CC[C@H](C)[C@H](NC(=O)[C@H](CC(C)C)NC(=O)[C@H](CC(N)=O)NC(=O)CNC(=O)CNC(=O)[C@H](Cc1ccc(O)cc1)NC(C)=O)C(=O)N[C@H](C(=O)N[C@@H](Cc1ccccc1)C(=O)N[C@@H](CCC(=O)O)C(=O)N1CCC[C@H]1C(=O)N[C@@H](CC(C)C)C(=O)N[C@@H](CCC(N)=O)C(=O)N1CCC[C@H]1C(=O)NCC(=O)N[C@@H](CCC(=O)O)C(=O)N[C@@H](Cc1ccccc1)C(N)=O)[C@@H](C)O` [HURP832–846 E] (Ac-YGGNLITFEPLQPGEF-NH2), the Kd came to 23 ± 2 µM at Clathrin NTD [1] and 22 µM on Clathrin NTD [2].
For the compound “H3COC-DMYALTRGSS(E/pS)LADQRK-NH2 [pS375 TOM1_366–382, phosphorylated TOM1 366-382 peptide]”, at 14-3-3 theta, the “binding in FP displacement experiment” value was “weak affinity”.
Consider `CC[C@H](C)[C@H](NC(=O)[C@@H](NC(=O)[C@@H]1CCCN1C(=O)[C@H](COP(=O)(O)O)NC(=O)[C@H](CO)NC(=O)[C@H](C)NC(=O)[C@@H]1CCCN1C(=O)[C@H](CCSC)NC(=O)[C@@H]1CCCN1C(=O)[C@H](CCC(N)=O)NC(=O)[C@H](Cc1ccc(O)cc1)NC(=O)[C@@H]1CCCN1C(=O)[C@@H](NC(=O)[C@@H](NC(=O)[C@H](CCSC)NC(C)=O)[C@@H](C)O)[C@@H](C)CC)C(C)C)C(=O)N[C@@H](CS)C(N)=O` [PCBP1_179–194 pS] (Ac-MTIPYQPMPAS[pS]PVIC-NH2), for which the Kd on AP2 μ2 was found to be 0.67 ± 0.04 µM.
Take “H3COC-DMYALTRGSS(E/pS)LADQRK-NH2 [S375E TOM1_366–382, phosphomimetic TOM1 366-382 peptide]”: the “binding in FP displacement experiment” value at 14-3-3 theta is on record as “no binding”.
`CC[C@H](C)[C@H](NC(=O)[C@H](CC(C)C)NC(=O)[C@H](CC(N)=O)NC(=O)CNC(=O)CNC(=O)[C@H](Cc1ccc(O)cc1)NC(C)=O)C(=O)N[C@H](C(=O)N[C@@H](Cc1ccccc1)C(=O)N[C@@H](CO)C(=O)N1CCC[C@H]1C(=O)N[C@@H](CC(C)C)C(=O)N[C@@H](CCC(N)=O)C(=O)N1CCC[C@H]1C(=O)NCC(=O)N[C@@H](CCC(=O)O)C(=O)N[C@@H](Cc1ccccc1)C(N)=O)[C@@H](C)O` [HURP832–846 wt] (Ac-YGGNLITFSPLQPGEF-NH2): the figures for the Kd at Clathrin NTD [1] and at Clathrin NTD [2] were 134 ± 16 µM and 266 µM, respectively.
